Measured values taken from patent publication US9018255B2, “Esters of (acyloxymethyl)acrylamide, a pharmaceutical composition containing them, and their use as inhibitors of the thioredoxin—thioredoxin reductase system” (Instytut Chemii Organicznej Polskiej Akademii Nauk, priority 2010, dated 2015).
pIC50: −log10 of the molar value. Entries after “also recorded” stand apart in the source; their conditions may differ. Where two headings read alike, the source gives them in different places.

Key:
T24 cells = assay: Cell cycle analysis by flow cytometry (propidium iodide); assay type: cell-based, human; conditions: T24, 72 hours of incubation
Excerpt: The cell cycle is composed of a series of events leading to cell division. In the cell cycle we differentiate the following phases: G1 (interval between divisions), S (duplication of genetic material) and G2/M (division or mitosis). An analysis of the cel cycle using a flow-through cytometer makes it possible to determine the percentage of cells in each of the phases. Furthermore, the percentage of cells in the so-called subG1 phase: those, whose genetic material has degraded as a result of apoptosis or necrosis.
The cells were stained with propidium iodide at […] and analysed with flow-through cytometry. The percentage of dividing cells duplicating their genetic material (S phase) is clearly lower after incubation with inhibitors of thioredoxin.

[1] = molecular target: rat recombinant thioredoxin reductase (Rattus norvegicus (Rat), UniProt O89049); assay: Thioredoxin reductase activity, DTNB chromogenic assay (Thioredoxin Reductase Assay Kit); assay type: biochemical; conditions: for pIC50: read-out: IC50 of thioredoxin reductase activity inhibition
Experimental: Reactions in which the activity of recombinant rat thioredoxin reductase was determined made use of a chromogenic reaction with 5,5′-dithiobis-2-nitrobenzoic acid.

[2] = molecular target: human recombinant thioredoxin (Homo sapiens (Human), UniProt P10599); assay: Thioredoxin activity, insulin reduction / DTNB assay with recombinant enzymes; assay type: biochemical; conditions: for thioredoxin activity inhibition in comparison to PX-12: in words; for pIC50: 37° C., 30 min, 0.25 μM thioredoxin, 0.325 μM thioredoxin reductase, read-out: IC50 of thioredoxin inhibition
Experimental: The method of determining thioredoxin activity is based on the reduction of insulin by thioredoxin. Thioredoxin is reconstituted is by thioredoxin reductase, with NADPH. The resulting free thiol —SH groups react with 5,5′-dithiobis-2-nitrobenzoic acid (DTNB). The termination of the reaction results in the formation of a […] colour. The intensity of colouration is determined spectrophotometrically at 412 nm and this corresponds to the number of reduced sulfahydryl groups. The reaction was performed at 37° C. over 30 min. in a buffer containing 50 mM Tris-HCl and 20 mM EDTA at a pH of 7.6. The substrate concentrations used were: 0.25 μM human recombinant thioredoxin and 0.325 μM rat recombinant thioredoxin reductase (IMCO Corporation Ltd AB, Sweden) and 316 μM of insulin, 0.8 μM NADPH, 8 mM DTNB (Sigma Aldrich).

[3] = test system: PANC02 (murine pancreatic cancer); assay: Cytostatic/cytotoxic activity, PANC02; assay type: cell-based; conditions: PANC02, after 72 h of incubation
Experimental: (§1) The cytostatic/cytotoxic activity was evaluated using the following lines of tumour cells: EMT6 (murine breast cancer), PANC02 (murine pancreatic cancer), B78 (murine melanoma), C-26 (murine colon cancer), K562 (human chronic myelogenic leukaemia), T24 (human bladder cancer), RAJI (human Burkitt's lymphoma), Ramos (human Burkitt's lymphoma). The cultures were maintained in the following media: DMEM (EMT6, PANC02, B78), RPMI (C-26, Raji, Ramos), IMDM (K562), McCoy's (T24) with an addition of 10% bovine serum (Invitrogen) and antibiotics (Sigma).
(§2) To determine cytostatic/cytotoxic activity of the evaluated compounds, cell cultures were initiated in 96-well plates. After 24 h, inhibitors were added at set concentrations. The results were determined using colorimetric methods following 72 hours of incubation. To determine cytostatic/cytotoxic activity, crystal violet dyeing was used (reading at 595 nm) or MTT (Sigma; reading at 570 nm).

[4] = test system: RAJI (human Burkitt's lymphoma); assay: Cytostatic/cytotoxic activity, RAJI; assay type: cell-based; conditions: after 72 h of incubation
Experimental: as §1, §2

[5] = test system: Ramos (human Burkitt's lymphoma); assay: Cytostatic/cytotoxic activity, Ramos; assay type: cell-based; conditions: after 72 h of incubation
Experimental: as §1, §2

[6] = test system: C-26 (murine colon cancer); assay: Cytostatic/cytotoxic activity, C-26; assay type: cell-based; conditions: C-26, after 72 h of incubation
Experimental: as §1, §2

glutathione reductase [7] = molecular target: T1, glutathione reductase (Homo sapiens (Human), UniProt P00390); assay: Glutathione reductase activity, DTNB chromogenic assay (Glutathione Reductase Assay Kit); assay type: biochemical; conditions: for pIC50: read-out: IC50 of glutathione reductase activity inhibition; for inhibition of glutathione reductase activity: even at a concentration of 100 μM
Experimental: The spatial structures of the active centres of glutathione reductase and the enzymes of the Trx-TrxR system show a high similarity. […] The reactions for determining the activity of recombinant human glutathione reductase made use of a chromogenic reaction with 5,5′-dithiobis-2-nitrobenzoic acid, like in the case of thioredoxin reductase. Activity was determined after 5 and 10 min incubation at room temperature.

[8] = test system: panel of human and murine lines of tumour cells; assay: Cytostatic/cytotoxic activity against panel of tumour cell lines (FIG. 1); assay type: cell-based; conditions: in words
Experimental: The cytostatic/cytotoxic activity against adherent cells, from solid tumours cells (EMT6, PAN02, CT26 and T24) was evaluated using the crystalline violet test, whereas against suspension-grown cells of the MTT line. b.d.=no data.
as §1, §2

[9] = test system: EMT6 (murine breast cancer); assay: Cytostatic/cytotoxic activity, EMT6; assay type: cell-based; conditions: for LD50 of the evaluated compound: EMT6, after 72 h of incubation
Experimental: as §1
To determine cytostatic/cytotoxic activity of the evaluated compounds, cell cultures were initiated in 96-well plates. After 24 h, inhibitors were added at set concentrations. The results were determined using colorimetric methods following 72 hours of incubation.

B78 (murine melanoma) = assay: Cytostatic/cytotoxic activity, B78; assay type: cell-based; conditions: B78, after 72 h of incubation
Experimental: as §1, §2

[10] = test system: K562 (human chronic myelogenic leukaemia); assay: Cytostatic/cytotoxic activity, K562; assay type: cell-based; conditions: K562, after 72 h of incubation
Experimental: as §1, §2

[11] = test system: T24 (human bladder cancer); assay: Cytostatic/cytotoxic activity, T24; assay type: cell-based; conditions: T24, after 72 h of incubation
Experimental: as §1, §2

glutathione reductase [12] = molecular target: T1, glutathione reductase; conditions: literature (Gromer et al. 1998); cited from earlier work
thioredoxin reductase = thioredoxin reductase (Homo sapiens (Human), UniProt Q16881); conditions: literature (Gromer et al. 1998); cited from earlier work
thioredoxin reductase, sequence (Q16881 151-649): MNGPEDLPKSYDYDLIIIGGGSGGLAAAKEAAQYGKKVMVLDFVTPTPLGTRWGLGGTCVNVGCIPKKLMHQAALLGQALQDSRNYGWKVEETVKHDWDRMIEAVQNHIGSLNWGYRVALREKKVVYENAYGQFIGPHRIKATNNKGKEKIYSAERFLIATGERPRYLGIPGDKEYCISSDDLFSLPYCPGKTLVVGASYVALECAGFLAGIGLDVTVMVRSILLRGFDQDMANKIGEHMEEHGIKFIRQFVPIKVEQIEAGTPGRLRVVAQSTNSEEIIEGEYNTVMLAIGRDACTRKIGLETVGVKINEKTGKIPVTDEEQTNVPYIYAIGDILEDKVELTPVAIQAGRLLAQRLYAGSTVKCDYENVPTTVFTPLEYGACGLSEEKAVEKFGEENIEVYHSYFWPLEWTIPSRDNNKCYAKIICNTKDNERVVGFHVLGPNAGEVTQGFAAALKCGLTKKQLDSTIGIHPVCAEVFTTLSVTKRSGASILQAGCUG

human recombinant thioredoxin, sequence (P10599 whole entry): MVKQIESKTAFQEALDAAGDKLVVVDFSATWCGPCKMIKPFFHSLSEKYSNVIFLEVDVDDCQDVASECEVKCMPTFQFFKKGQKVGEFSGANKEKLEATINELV
rat recombinant thioredoxin reductase, sequence (O89049 whole entry): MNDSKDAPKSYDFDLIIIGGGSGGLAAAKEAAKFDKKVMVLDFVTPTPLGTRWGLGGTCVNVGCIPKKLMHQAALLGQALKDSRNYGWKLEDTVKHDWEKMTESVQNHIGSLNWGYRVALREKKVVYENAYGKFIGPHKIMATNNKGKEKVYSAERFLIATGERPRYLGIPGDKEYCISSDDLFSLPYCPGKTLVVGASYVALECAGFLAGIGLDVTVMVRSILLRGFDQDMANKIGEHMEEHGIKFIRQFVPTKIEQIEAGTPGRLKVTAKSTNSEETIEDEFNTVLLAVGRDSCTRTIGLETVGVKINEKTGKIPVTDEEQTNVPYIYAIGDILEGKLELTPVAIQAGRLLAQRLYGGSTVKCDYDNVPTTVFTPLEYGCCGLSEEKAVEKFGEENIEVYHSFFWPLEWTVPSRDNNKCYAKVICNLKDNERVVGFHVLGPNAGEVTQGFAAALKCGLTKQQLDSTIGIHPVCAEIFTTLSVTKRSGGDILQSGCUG
T1 sequence (P00390 44-522): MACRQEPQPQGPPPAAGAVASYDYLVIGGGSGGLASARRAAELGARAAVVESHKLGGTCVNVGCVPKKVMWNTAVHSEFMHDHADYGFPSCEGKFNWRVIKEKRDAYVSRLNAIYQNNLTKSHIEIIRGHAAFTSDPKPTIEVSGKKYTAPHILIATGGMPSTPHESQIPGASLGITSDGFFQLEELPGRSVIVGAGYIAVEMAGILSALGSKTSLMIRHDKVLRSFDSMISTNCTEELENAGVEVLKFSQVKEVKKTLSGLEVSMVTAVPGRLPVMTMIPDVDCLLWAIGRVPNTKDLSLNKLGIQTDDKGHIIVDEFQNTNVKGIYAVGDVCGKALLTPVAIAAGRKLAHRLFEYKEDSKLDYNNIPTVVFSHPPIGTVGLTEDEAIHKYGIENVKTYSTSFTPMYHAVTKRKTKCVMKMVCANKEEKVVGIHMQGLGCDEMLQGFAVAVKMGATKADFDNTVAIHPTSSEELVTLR

For `C=C(COC(=O)c1c(C(F)(F)F)cccc1C(F)(F)F)C(=O)NC(CC(C)C)C(=O)NCC(=O)OCC` (racemic) [Compound 3a, 2-((1-((2-ethoxy-2-oxoethyl)amino)-4-methyl-1-oxopentan-2-yl)carbamoyl)allyl 2,6-bis(trifluoromethyl)benzoate], the “percentage of dividing cells duplicating their genetic material (S phase)” value (T24 cells) was “clearly lower”, the pIC50 ([1]; 5 min from reaction onset) was 4.43 and the pIC50 ([1]; 15 min from reaction onset) was under 4.40. The “inhibition of thioredoxin reductase activity” value ([1]; in words) was “slightly inhibited”, the “thioredoxin reductase activity inhibition in comparison to PX-12” value ([1]; in words) was “about three times less; also recorded: IC50 nearly three times higher” and the “thioredoxin activity inhibition in comparison to PX-12” value (shortened to “thioredoxin activity inhibition”) [2] was “concentrations smaller than compound PX-12; also recorded: three times stronger”. For the same molecule, the “LD50 of the evaluated compound” value [3] was 3.2 µM, the “LD50 of the evaluated compound” value [4] was 4.6 µM and the “LD50 of the evaluated compound” value [5] was 3.3 µM. The “LD50 of the evaluated compound” value [6] was 3.2 µM, the pIC50 (glutathione reductase [7]; 5 min from reaction onset) was under 4.00 and the pIC50 (glutathione reductase [7]; 10 min from reaction onset) was under 4.00. For the same molecule, the “inhibition of glutathione reductase activity” value (glutathione reductase [7]) was “None”, the cytostatic/cytotoxic activity [8] was “comparable” and the “cytostatic/cytotoxic activity in comparison to PX-12” value ([9]; EMT6) was “over two times more active”. The “LD50 of the evaluated compound” value [9] was 5.3 µM, the “LD50 of the evaluated compound” value (B78 (murine melanoma)) was 4.3 µM and the “LD50 of the evaluated compound” value [10] was 3.8 µM. For the same molecule, the “LD50 of the evaluated compound” value [11] was 5.1 µM.
For `C=C(COC(=O)c1c(Cl)cccc1Cl)C(=O)NC(CC(C)C)C(=O)NCC(=O)OCC` (racemic) [Compound 3b, 2-((1-((2-ethoxy-2-oxoethyl)amino)-4-methyl-1-oxopentan-2-yl)carbamoyl)allyl 2,6-dichlorobenzoate], the pIC50 [2] was 5.54, the “thioredoxin activity inhibition” value [2] was “concentrations smaller than compound PX-12” and the “thioredoxin IC50, times lower than for PX-12” value ([2]; ratio to PX-12) was “about 5 times”. For the same molecule, the cytostatic/cytotoxic activity [8] was “strong cytostatic/cytotoxic activity”.
With `C=C(COC(=O)c1c(C(F)(F)F)cccc1C(F)(F)F)C(=O)NCc1ccccc1` [Compound 8a, 2-(benzylcarbamoyl)allyl 2,6-bis(trifluoromethyl)benzoate] the pIC50 ([1]; 5 min from reaction onset) was under 4.40, the pIC50 ([1]; 15 min from reaction onset) was under 4.40 and the pIC50 (glutathione reductase [7]; 5 min from reaction onset) was under 4.00. For the same molecule, the pIC50 (glutathione reductase [7]; 10 min from reaction onset) was under 4.00 and the cytostatic/cytotoxic activity [8] was “strong cytostatic/cytotoxic activity”.
Molecule `C=C(COC(=O)c1c(Cl)cccc1Cl)C(=O)NCc1ccccc1` [Compound 8b, 2-(benzylcarbamoyl)allyl 2,6-dichlorobenzoate] has a pIC50 ([1]; 5 min from reaction onset) of under 4.40, a pIC50 ([1]; 15 min from reaction onset) of under 4.40 and a pIC50 [2] of 5.23. The “selectivity as thioredoxin inhibitor in comparison to PX-12” value ([2]; from Tables 1, 2 and 3) was “considerably more selective”, the “thioredoxin activity inhibition” value [2] was “concentrations smaller than compound PX-12” and the pIC50 (glutathione reductase [7]; 5 min from reaction onset) was under 4.00. For the same molecule, the pIC50 (glutathione reductase [7]; 10 min from reaction onset) was under 4.00, the “inhibition of glutathione reductase activity” value (glutathione reductase [7]) was “None” and the cytostatic/cytotoxic activity [8] was “strong cytostatic/cytotoxic activity”.
In the case of `C=C(COC(=O)c1c(C(F)(F)F)cccc1C(F)(F)F)C(=O)N[C@H](CC(C)C)C(=O)NCC(=O)OCC` [Compound D-3a, (R)-2-((1-((2-ethoxy-2-oxoethyl)amino)-4-methyl-1-oxopentan-2-yl)carbamoyl)allyl 2,6-bis(trifluoromethyl)benzoate], the “thioredoxin activity inhibition” value [2] was “concentrations smaller than compound PX-12” and the cytostatic/cytotoxic activity [8] was “strong cytostatic/cytotoxic activity”.
For `C=C(COC(=O)c1c(C(F)(F)F)cccc1C(F)(F)F)C(=O)N[C@@H](CC(C)C)C(=O)NCC(=O)OCC` [Compound L-3a, (S)-2-((1-((2-ethoxy-2-oxoethyl)amino)-4-methyl-1-oxopentan-2-yl)carbamoilo)allyl 2,6-bis(trifluoromethyl)benzoate], the “thioredoxin activity inhibition” value [2] was “concentrations smaller than compound PX-12” and the cytostatic/cytotoxic activity [8] was “strong cytostatic/cytotoxic activity”.
In the case of `CCC(C)SSc1ncc[nH]1` (stereo not drawn) [PX-12, 1-methylpropyl-2-imidazole disulphide, reference compound], the “percentage of dividing cells duplicating their genetic material (S phase)” value (T24 cells) was “clearly lower”, the “LD50 of the evaluated compound” value [3] was 3.8 µM and the “LD50 of the evaluated compound” value [4] was 5.9 µM. For the same molecule, the “LD50 of the evaluated compound” value [5] was 3.7 µM, the “LD50 of the evaluated compound” value [6] was 5.4 µM and the pIC50 (glutathione reductase [7]; 5 min from reaction onset) was 4.70. The pIC50 (glutathione reductase [7]; 10 min from reaction onset) was 4.54, the “LD50 of the evaluated compound” value [9] was 12.7 µM and the “LD50 of the evaluated compound” value (B78 (murine melanoma)) was 5.3 µM. For the same molecule, the “LD50 of the evaluated compound” value [10] was 4.9 µM and the “LD50 of the evaluated compound” value [11] was 4.5 µM.
In the case of `CC[P](CC)(CC)=[Au][S]C1OC(OC(C)=O)C(OC(C)=O)C(OC(C)=O)C1OC(C)=O` (stereo not drawn) [auranofin], the “concentrations inhibiting glutathione reductase” value (glutathione reductase [12]) is listed as “micromolar levels” and the “concentrations inhibiting thioredoxin reductase” value (thioredoxin reductase) is listed as “nanomolar concentrations”.
